Article PMC2173257 (The Journal of Cell Biology, 2002)

Experiments:
Kes1p^LH201/202FN = Kes1p^LH201/202FN (Saccharomyces cerevisiae, UniProt P35844, L201F/H202N); experiment: competitive displacement of photo-probe from purified mutant protein; assay type: binding
Kes1p = Kes1p (Saccharomyces cerevisiae, UniProt P35844); experiment: competitive displacement of [3H]BZDC-PI; assay type: binding

- IC50 (Kes1p^LH201/202FN): 6.1 µM
- IC50 (Kes1p): 1.9 µM
Substance: PI(4,5)P2
